In patent publication US9603896B2, “Peptide compounds and methods of production and use thereof” (priority 2012, dated 2017):

System: cytokines in mouse cornea
Experiment: Cytokines in corneal lysates after intrastromal injection (MILLIPLEX MAP mouse cytokine assay)
Format: in vivo
Conditions: intrastromal 0.5 μl, 10^−4, 10^−5, 10^−6 M; 24 and 48 hours
Experimental: Corneas were injected intrastromally with 0.5 μl of peptide 95-122 at a final concentration of 10^−4 M, 10^−5 M, and 10^−6 M and vehicle (saline) control. Corneas were collected and flash frozen at 24 hours and 48 hours. Corneal lysates were analyzed for cytokines using the MILLIPLEX® MAP mouse cytokine assay for IL-7(A), IL-15 (B), IFN-γ (C), MIP1-α (D) (EMD Millipore Corp., Billerica, Mass.). The means of independent experimental values are shown ±SEM. ***P<0.001, **P<0.01, *P<0.05 by unpaired t-test as compared to vehicle treated controls. […] Corneas were injected intrastromally with 0.5 μl of peptide 95-122 at a final concentration of 10^−4 M, 10^−5 M, and 10^−6 M and vehicle (saline) control. Corneas were collected and flash frozen at 24 hours and 48 hours. Corneal lysates were analyzed for cytokines using the MILLIPLEX® MAP mouse cytokine assay for MIP1-β (EMD Millipore Corp., Billerica, Mass.). **P<0.01, *P<0.05 by unpaired t-test as compared to vehicle treated controls. […] Corneas were injected intrastromally with 0.5 μl of peptide 95-122 at a final concentration of 10^−4 M, 10^−5 M, and 10^−6 M and vehicle (saline) control. Corneas were collected and flash frozen at 24 hours and 48 hours. Corneal lysates were analyzed for cytokines using the MILLIPLEX® MAP mouse cytokine assay for KC (A), IL-1β (B), and GM-CSF (C) (EMD Millipore Corp., Billerica, Mass.). **P<0.01, *P<0.05 by unpaired t-test as compared to vehicle treated controls.

LDREANLTSSVTILPLPLQNATVEAGTR (listed as Homo sapiens) [Peptide 95-122]
significantly increases: GM-CSF in corneal lysates | IFN-γ in corneal lysates | IL-1β in corneal lysates | IL-7 in corneal lysates | IL-15 in corneal lysates | KC in corneal lysates | MIP1-13 in corneal lysates | MIP1-α in corneal lysates
